# Tests used:
# [1] = molecular target: T1, Serine/threonine-protein kinase Chk1 (Homo sapiens, UniProt O14757); test: CHK1 Inhibition Assay; conditions: pH 7.4; 22 °C
# T1 sequence (O14757 whole entry): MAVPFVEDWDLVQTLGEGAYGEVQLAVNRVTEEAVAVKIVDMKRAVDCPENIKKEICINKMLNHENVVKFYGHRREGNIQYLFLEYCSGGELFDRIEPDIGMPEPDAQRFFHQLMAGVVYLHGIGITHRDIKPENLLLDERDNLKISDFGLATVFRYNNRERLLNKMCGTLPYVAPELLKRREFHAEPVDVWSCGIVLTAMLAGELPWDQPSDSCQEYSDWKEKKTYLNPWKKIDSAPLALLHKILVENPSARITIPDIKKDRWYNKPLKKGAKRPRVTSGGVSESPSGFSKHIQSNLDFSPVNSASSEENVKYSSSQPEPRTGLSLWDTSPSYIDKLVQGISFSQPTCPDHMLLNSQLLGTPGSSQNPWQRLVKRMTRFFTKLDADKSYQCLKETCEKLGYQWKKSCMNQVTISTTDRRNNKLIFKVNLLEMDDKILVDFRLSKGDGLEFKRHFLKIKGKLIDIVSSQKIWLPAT
# Text: The inhibitors reported in this study bind to CHK1 according to a general mechanism illustrated in Scheme 1 where E, S, and I stand for enzyme, substrate and inhibitor using Caliper LC-3000 instrument (Caliper Life Science).
# [2] = molecular target: T1, Serine/threonine-protein kinase Chk1; test: Surface Plasmon Resonance BindingAssay; conditions: pH 8; 20 °C
# Description: Surface plasmon resonance (SPR) biosensor binding studies were conducted using a Biacore 3000 instrument (GE Healtchare).
SMILES,Ki [1] [nM],Ki [2] [nM]
CC(C)(C)c1ccc(C(=O)NC(=O)Nc2cccc3ccccc23)cc1[N+](=O)O [CHK1 compound 3],146,290
O=C1NN=Cc2c(C(=O)N3C[C@@H](O)[C@@H](O)C3)[nH]c3cc(NC(=O)C4C[C@H]4c4ccccc4)cc1c23 (some centres undefined) [CHK1 compound 1],1.75,5.14

# Source: BindingDB's records for doi:10.1021/bi900258v (Pfizer, 2009)
